Data published in BindingDB's records for doi:10.1021/jm00066a012 (Upjohn Laboratories, 1993).

assay: In vitro inhibitory activity against ADP-induced human platelet aggregation

Row | SMILES | IC50
1 | O=c1cc(N2CCOCC2)oc2cc(OCc3cccc4ccccc34)ccc12 [2-Morpholin-4-yl-7-(naphthalen-1-ylmethoxy)-chromen-4-one] | 41 µM
2 | O=c1cc(N2CCOCC2)oc2cc(OCc3ccccn3)ccc12 [2-Morpholin-4-yl-7-(pyridin-2-ylmethoxy)-chromen-4-one] | 53 µM
3 | Cc1c(N2CCOCC2)oc2c(C)c(OCc3cccc4ccccc34)ccc2c1=O [3,8-Dimethyl-2-morpholin-4-yl-7-(naphthalen-1-ylmethoxy)-chromen-4-one] | > 75 µM
4 | Cc1c(OCc2nnnn2C2CCCCC2)ccc2c(=O)cc(N3CCOCC3)oc12 [7-(1-Cyclohexyl-1H-tetrazol-5-ylmethoxy)-8-methyl-2-morpholin-4-yl-chromen-4-one] | 12 µM
5 | COc1ccccc1COc1ccc2c(=O)cc(N3CCOCC3)oc2c1C [7-(2-Methoxy-benzyloxy)-8-methyl-2-morpholin-4-yl-chromen-4-one] | 44 µM
6 | COCCOc1ccc2c(=O)cc(N3CCOCC3)oc2c1C [7-(2-Methoxy-ethoxy)-8-methyl-2-morpholin-4-yl-chromen-4-one] | 7 µM
7 | COc1ccc(COc2ccc3c(=O)cc(N4CCOCC4)oc3c2C)cc1 [7-(4-Methoxy-benzyloxy)-8-methyl-2-morpholin-4-yl-chromen-4-one] | 47 µM
8 | C=CCOc1ccc2c(=O)cc(N3CCOCC3)oc2c1C [7-Allyloxy-8-methyl-2-morpholin-4-yl-chromen-4-one] | 58 µM
9 | Cc1c(N2CCOCC2)oc2c(C)c(OCc3ccccc3)ccc2c1=O [7-Benzyloxy-3,8-dimethyl-2-morpholin-4-yl-chromen-4-one] | > 75 µM
10 | Cc1c(OCc2ccccc2)ccc2c(=O)cc(N3CCOCC3)oc12 [7-Benzyloxy-8-methyl-2-morpholin-4-yl-chromen-4-one] | 40 µM
11 | COc1ccc2c(=O)cc(N3CCOCC3)oc2c1C [7-Methoxy-8-methyl-2-morpholin-4-yl-chromen-4-one] | 41 µM
12 | Cc1c(OCCN2CCN(Cc3ccccc3)CC2)ccc2c(=O)cc(N3CCOCC3)oc12 [7-[2-(4-Benzyl-piperazin-1-yl)-ethoxy]-8-methyl-2-morpholin-4-yl-chromen-4-one] | 11 µM
13 | CCCc1c(OCCN2CCN(C)CC2)ccc2c(=O)cc(N3CCOCC3)oc12 [7-[2-(4-Methyl-piperazin-1-yl)-ethoxy]-2-morpholin-4-yl-8-propyl-chromen-4-one] | 69 µM
14 | CN1CCN(CCOc2ccc3c(=O)cc(N4CCOCC4)oc3c2)CC1 [7-[2-(4-Methyl-piperazin-1-yl)-ethoxy]-2-morpholin-4-yl-chromen-4-one] | 35 µM
15 | CCN(CCOc1ccc2c(=O)cc(N3CCOCC3)oc2c1C)c1ccccc1 [7-[2-(Ethyl-phenyl-amino)-ethoxy]-8-methyl-2-morpholin-4-yl-chromen-4-one] | 43 µM
16 | Cc1c(OCCN2CCN(CCO)CC2)ccc2c(=O)cc(N3CCOCC3)oc12 [7-{2-[4-(2-Hydroxy-ethyl)-piperazin-1-yl]-ethoxy}-8-methyl-2-morpholin-4-yl-chromen-4-one] | 12 µM
17 | CCN(CCO)CCOc1ccc2c(=O)cc(N3CCOCC3)oc2c1C [7-{2-[Ethyl-(2-hydroxy-ethyl)-amino]-ethoxy}-8-methyl-2-morpholin-4-yl-chromen-4-one] | 14 µM
18 | C=CCc1c(OCCN2CCN(C)CC2)ccc2c(=O)cc(N3CCOCC3)oc12 [8-Allyl-7-[2-(4-methyl-piperazin-1-yl)-ethoxy]-2-morpholin-4-yl-chromen-4-one] | 8.9 µM
19 | Cc1c(OCc2nnnn2-c2ccccc2)ccc2c(=O)cc(N3CCOCC3)oc12 [8-Methyl-2-morpholin-4-yl-7-(1-phenyl-1H-tetrazol-5-ylmethoxy)-chromen-4-one] | 8 µM
20 | Cc1c(OCC(=O)c2ccccc2)ccc2c(=O)cc(N3CCOCC3)oc12 [8-Methyl-2-morpholin-4-yl-7-(2-oxo-2-phenyl-ethoxy)-chromen-4-one] | 43 µM
21 | CC(=O)COc1ccc2c(=O)cc(N3CCOCC3)oc2c1C [8-Methyl-2-morpholin-4-yl-7-(2-oxo-propoxy)-chromen-4-one] | 12 µM
22 | Cc1c(OCCN2CCCCC2)ccc2c(=O)cc(N3CCOCC3)oc12 [8-Methyl-2-morpholin-4-yl-7-(2-piperidin-1-yl-ethoxy)-chromen-4-one] | 5 µM
23 | Cc1c(OCc2cccc3ccccc23)ccc2c(=O)cc(N3CCOCC3)oc12 [8-Methyl-2-morpholin-4-yl-7-(naphthalen-1-ylmethoxy)-chromen-4-one] | 13 µM
24 | Cc1c(OCc2ccc3ccccc3c2)ccc2c(=O)cc(N3CCOCC3)oc12 [8-Methyl-2-morpholin-4-yl-7-(naphthalen-2-ylmethoxy)-chromen-4-one] | 65 µM
25 | Cc1c(OCc2ccccn2)ccc2c(=O)cc(N3CCOCC3)oc12 [8-Methyl-2-morpholin-4-yl-7-(pyridin-2-ylmethoxy)-chromen-4-one] | 19 µM
26 | Cc1c(OCCN2CCN(c3ccccc3)CC2)ccc2c(=O)cc(N3CCOCC3)oc12 [8-Methyl-2-morpholin-4-yl-7-[2-(4-phenyl-piperazin-1-yl)-ethoxy]-chromen-4-one] | > 75 µM
27 | CSCCOc1ccc2c(=O)cc(N3CCOCC3)oc2c1C [8-Methyl-7-(2-methylsulfanyl-ethoxy)-2-morpholin-4-yl-chromen-4-one] | 14 µM
28 | COC(=O)COc1ccc2c(=O)c(C)c(N3CCOCC3)oc2c1C [(3,8-Dimethyl-2-morpholin-4-yl-4-oxo-4H-chromen-7-yloxy)-acetic acid methyl ester] | 59 µM
29 | COC(=O)COc1ccc2c(=O)cc(N3CCOCC3)oc2c1C [(8-Methyl-2-morpholin-4-yl-4-oxo-4H-chromen-7-yloxy)-acetic acid methyl ester] | 9 µM

Compounds with a lower IC50, results first:

Row | IC50 | SMILES
30 | 4.3 µM | Cc1c(OCCN2CCSCC2)ccc2c(=O)cc(N3CCOCC3)oc12 [8-Methyl-2-morpholin-4-yl-7-(2-thiomorpholin-4-yl-ethoxy)-chromen-4-one]
31 | 4 µM | CCc1c(OCCN2CCN(C)CC2)ccc2c(=O)cc(N3CCOCC3)oc12 [8-Ethyl-7-[2-(4-methyl-piperazin-1-yl)-ethoxy]-2-morpholin-4-yl-chromen-4-one]
32 | 4 µM | Cc1c(OCCN2CCNCC2)ccc2c(=O)cc(N3CCOCC3)oc12 [8-Methyl-2-morpholin-4-yl-7-(2-piperazin-1-yl-ethoxy)-chromen-4-one]
33 | 4 µM | Cc1c(OCCN2CCCC2)ccc2c(=O)cc(N3CCOCC3)oc12 [8-Methyl-2-morpholin-4-yl-7-(2-pyrrolidin-1-yl-ethoxy)-chromen-4-one]
34 | 4 µM | Cc1c(OCc2cccnc2)ccc2c(=O)cc(N3CCOCC3)oc12 [8-Methyl-2-morpholin-4-yl-7-(pyridin-3-ylmethoxy)-chromen-4-one]
35 | 3 µM | Cc1c(OCCN2CCCCCC2)ccc2c(=O)cc(N3CCOCC3)oc12 [7-(2-Azepan-1-yl-ethoxy)-8-methyl-2-morpholin-4-yl-chromen-4-one]
36 | 3 µM | C=Cc1c(OCCN2CCN(C)CC2)ccc2c(=O)cc(N3CCOCC3)oc12 [7-[2-(4-Methyl-piperazin-1-yl)-ethoxy]-2-morpholin-4-yl-8-vinyl-chromen-4-one]
37 | 2.8 µM | Cc1c(OCc2nnnn2C)ccc2c(=O)cc(N3CCOCC3)oc12 [8-Methyl-7-(1-methyl-1H-tetrazol-5-ylmethoxy)-2-morpholin-4-yl-chromen-4-one]
38 | 2.6 µM | CCN(CC)CCOc1ccc2c(=O)cc(N3CCOCC3)oc2c1C [7-(2-Diethylamino-ethoxy)-8-methyl-2-morpholin-4-yl-chromen-4-one]
39 | 2 µM | Cc1c(OCc2nnnn2C(C)(C)C)ccc2c(=O)cc(N3CCOCC3)oc12 [7-(1-tert-Butyl-1H-tetrazol-5-ylmethoxy)-8-methyl-2-morpholin-4-yl-chromen-4-one]
40 | 1.4 µM | Cc1cc2c(=O)cc(N3CCOCC3)oc2c(C)c1OCCN1CCN(C)CC1 [6,8-Dimethyl-7-[2-(4-methyl-piperazin-1-yl)-ethoxy]-2-morpholin-4-yl-chromen-4-one]
41 | 0.85 µM | Cc1c(OCCN2CCN(C)CC2)ccc2c(=O)cc(N3CCOCC3)oc12 [7-[2-(4-methylpiperazin-1-yl)ethoxy]-8-methyl-2-morpholinyl chromone]
